Source: US9216173B2, “2-Pyridyl carboxamide-containing spleen tyrosine kinase (SYK) inhibitors” (Merck Sharp & Dohme Corp., priority 2011, dated 2015)

Each molecule was assayed against T1, recombinant human GST-SYK (Homo sapiens, UniProt P43405) (assay: Homogeneous Time-Resolved Fluorescence (HTRF) assay for the recombinant human Syk enzyme). Settings: GST-hSYK 5 pM, ATP 25 μM, 10-dose titration 10 μM to 0.508 nM; read-out: IC50.
T1 construct: purchased Carna Biosciences 08-176
Format: biochemical
Method: Homogeneous Time-Resolved Fluorescence (HTRF) Assay for the Recombinant Human Syk Enzyme
A recombinant GST-hSYK fusion protein was used to measure potency of compounds to inhibit human Syk activity. […] Final volume of the reaction was 10 μL. Phosphorylation of the peptide was allowed to proceed for 45 minutes at room temperature. To quench the reaction and detect the phosphorylated product, 2 nM of a Europium-anti-phosphotyrosine antibody (Perkin Elmer #AD0161) and 70 nM SA-APC (Perkin-Elmer #CR130-100) were added together in 15 mM Tris pH 7.5, 40 mM EDTA, 0.01% tween 20. Final volume of the quenching solution was 10 μL. The resulting HTRF signal was measured after 30 minutes on an EnVision (Perkin-Elmer) reader using a time-resolved fluorescence protocol.

Row | Structure (SMILES) | IC50 [nM]
1 | Cc1cc(C)nc(Nc2cc(NC(C(N)=O)C(C)C)cnc2C(N)=O)c1 (stereo not drawn) [Example 1.41, 5-[(1-carbamoyl-2-methylpropyl)amino]-3-[(4,6-dimethylpyridin-2-yl)amino]pyridine-2-carboxamide] | 12

Same assay, conditions: GST-hSYK 5 pM, ATP 25 μM, 10-dose titration 10 μM to 0.508 nM; read-out: rhSYK Activity (IC50 rating)

Row | Structure (SMILES) | IC50 [nM]
2 | Cn1ncc(Nc2cc(N[C@@H]3CCCC[C@@H]3N)cnc2C(N)=O)n1 [Example 1.62, 5-{[(1R,2S)-2-aminocyclohexyl]amino}-3-[(2-methyl-2H-1,2,3-triazol-4-yl)amino]pyridine-2-carboxamide] | 10 to 100
3 | CC1=CCCc2nc(Nc3cc(N[C@@H]4CCCC[C@@H]4N)cnc3C(N)=O)ccc21 [Example 18, 5-{[(1R,2S)-2-aminocyclohexyl]amino}-3-[(5-methyl-7,8-dihydroquinolin-2-yl)amino]pyridine-2-carboxamide] | < 10
4 | CCc1cccc(Nc2cc(N[C@H]3[C@@H](N)CCCC3(F)F)cnc2C(N)=O)n1 [Example 1.88, 5-{[(1S,6S)-6-amino-2,2-difluorocyclohexyl]amino}-3-[(6-ethylpyridin-2-yl)amino]pyridine-2-carboxamide] | < 10
5 | NC(=O)c1ncc(N[C@@H]2CCCC[C@@H]2N)cc1Nc1ccn(-c2ccccn2)n1 [Example 1.81, 5-{[(1R,2S)-2-aminocyclohexyl]amino}-3-[(1-pyridin-2-yl-1H-pyrazol-3-yl)amino]pyridine-2-carboxamide] | < 10
6 | Cc1cc(C)nc(Nc2cc(NC(C(N)=O)C(C)C)cnc2C(N)=O)c1 (stereo not drawn) [Example 1.41, 5-[(1-carbamoyl-2-methylpropyl)amino]-3-[(4,6-dimethylpyridin-2-yl)amino]pyridine-2-carboxamide] | 10 to 100
7 | NC(=O)c1ncc(N[C@@H]2CCCC[C@@H]2N)cc1Nc1cccc(C2CC2)n1 [Example 1.53, 5-{[(1R,2S)-2-aminocyclohexyl]amino}-3-[(6-cyclopropylpyridin-2-yl)amino]pyridine-2-carboxamide] | < 10
8 | Cc1cc(C)nc(Nc2cc(NCC(N)CO)cnc2C(N)=O)c1 (stereo not drawn) [Example 2.14, 5-[(2-amino-3-hydroxypropyl)amino]-3-[(4,6-dimethylpyridin-2-yl)amino]pyridine-2-carboxamide] | 10 to 100

Second part, the molecule after the results:

Row | IC50 [nM] | Structure (SMILES)
9 | < 10 | Cc1cc(C)nc(Nc2cc(N[C@H]3[C@@H](N)CCCC3(F)F)cnc2C(N)=O)c1 [Example 1.47, 5-{[(1S,6S)-6-amino-2,2-difluorocyclohexyl]amino}-3-[(4,6-dimethylpyridin-2-yl)amino]pyridine-2-carboxamide]
10 | < 10 | Cc1cc(Nc2cc(N[C@@H]3CCCC[C@@H]3N)cnc2C(N)=O)nc(C)n1 [Example 1.125, 5-{[(1R,2S)-2-aminocyclohexyl]amino}-3-[(2,6-dimethylpyrimidin-4-yl)amino]pyridine-2-carboxamide]
11 | < 10 | Cc1nc(Nc2cc(N[C@@H]3CCCC[C@@H]3N)cnc2C(N)=O)ccc1OC(C)C [Example 5.1, 5-{[(1R,1S)-2-aminocyclohexyl]amino}-3-{[6-methyl-5-(propan-2-yloxy)pyridin-2-yl]amino}pyridine-2-carboxamide]
12 | < 10 | Cc1nc(Nc2cc(N[C@@H]3CCCC[C@@H]3N)cnc2C(N)=O)ccc1-c1cccc(C(O)C(F)F)c1 (stereo partly drawn) [Example 3.1, 5-{[(1R,2S)-2-aminocyclohexyl]amino}-3-({5-[3-(2,2-difluoro-1-hydroxyethyl)phenyl]-6-methylpyridin-2-yl}amino)pyridine-2-carboxamide]
13 | < 10 | CCc1cccc(Nc2cc(N[C@@H]3CS(=O)(=O)CC[C@@H]3N)cnc2C(N)=O)n1 (relative stereo) [Example 1.91, rel-5-{[(3S,4S)-4-amino-1,1-dioxidotetrahydro-2H-thiopyran-3-yl]amino}-3-[(6-ethylpyridin-2-yl)amino]pyridine-2 carboxamide]
14 | < 10 | COc1cc(C)nc(Nc2cc(N[C@@H]3CCOC[C@@H]3N)cnc2C(N)=O)c1 [Example 1.131, 5-{[(3R,4R)-3-aminotetrahydro-2H-pyran-4-yl]amino}-3-[(4-methoxy-6-methylpyridin-2-yl)amino]pyridine-2-carboxamide]
15 | < 10 | COC[C@H](N)CNc1cnc(C(N)=O)c(Nc2ccn(-c3ccc(F)cc3)n2)c1 [Example 1.99, 5-{[(2R)-2-amino-3-methoxypropyl]amino}-3-{[1-(4-fluorophenyl)-1H-pyrazol-3-yl]amino}pyridine-2-carboxamide]
